Measured values from patent publication US8586598B2, “CDK inhibitor salts” (Nerviano Medical Sciences S.R.L., priority 2009, dated 2013).
In brackets after ≈: the same amount, converted by molar mass. Where two headings read alike, the source gives them in different places.

What was measured:
[1] = Solubility (no method given); format: physicochemical
[2] = Solubility of compound 125 salts and free base (96-well plate, shaken at RT 30 minutes, filtered, HPLC); format: physicochemical; conditions: thermodynamic from solid

In the case of CNC(=O)c1nn(C)c2c1C(C)(C)Cc1cnc(Nc3ccc(N4CCN(C)CC4)cc3)nc1-2 [compound 125, 8-[4-(4-methyl-piperazin-1-yl)-phenylamino]-1,4,4-trimethyl-4,5-dihydro-1H-pyrazolo[4,3-h]quinazoline-3-carboxylic acid methylamide], the solubility ([1]; 5% dextrose solution, saline or isotonic, read-out: solubility in 5% dextrose solution) is reported as < 0.1 mg/mL, the solubility ([1]; HCl in situ salt formulation, formulated as HCl in situ salt, read-out: solubility when formulated as HCl in situ salt) is reported as ≥ 10 mg/mL and the solubility ([1]; aqueous 10% Polysorbate 80, aqueous with cosolvent or surfactant or cyclodextrin) is reported as ~0.8 mg/mL (≈ 1740 µM). The solubility ([1]; aqueous 50% Polyethylene Glycol 400, aqueous with cosolvent or surfactant or cyclodextrin, read-out: solubility in aqueous 50% Polyethylene Glycol 400) was ~8 mg/mL (≈ 17400 µM), the solubility ([1]; water, read-out: aqueous solubility) was < 0.1 mg/mL and the solubility at 30 min ([2]; 10% polysorbate 80 in 5% glucose solution, aqueous with cosolvent or surfactant or cyclodextrin) was 0.8 mg/mL. The solubility at 30 min ([2]; 50% polyethylene glycol 400 in 5% glucose solution, aqueous with cosolvent or surfactant or cyclodextrin, read-out: solubility in 50% polyethylene glycol 400 in 5% glucose solution) was 7.2 mg/mL, the solubility at 30 min ([2]; saline or isotonic, 5% glucose solution, RT, 30 minutes, read-out: solubility in 5% glucose solution) was < 0.1 mg/mL and the solubility at 30 min ([2]; formulated as hydrochloride in situ salt, read-out: solubility when formulated as hydrochloride in situ salt) was 10 mg/mL.
